Literature values in patent US20120302500A1, “USE OF SO[…] IN MENINGIOMA” (NOVARTIS AG, priority 2008, published 2012).
Starred links: 1 amine or outer side, 2 acyl side, 3 side chain; linkers in the order of their positions; H or OH if unused. Non-standard residues stand in square brackets, D forms with d. Residues, ends and D or L forms follow the SMILES beside them. Groups on a side chain read outwards from the residue. *: point of attachment. Ethylenediamine = C(CN[*:2])N[*:1]; Hyp = O=C(O)[C@@H]1C[C@@H](O)CN1; Phg = N[C@H](C(=O)O)c1ccccc1; CO = O=C([*:1])[*:2]; Bn = c1ccc(C*)cc1

Conditions: in vivo

SMILES: NCCCC[C@@H]1NC(=O)[C@@H](Cc2c[nH]c3ccccc23)NC(=O)[C@H](c2ccccc2)NC(=O)[C@@H]2C[C@@H](OC(=O)NCCN)CN2C(=O)[C@H](Cc2ccccc2)NC(=O)[C@H](Cc2ccc(OCc3ccccc3)cc2)NC1=O [pasireotide, cyclo[{4-(NH2—C2H4—NH—CO—O—)Pro}-Phg-DTrp-Lys-Tyr(4-Bzl)-Phe]] (cyclo([Hyp]([CO-Ethylenediamine])[Phg][dW]KY(Bn)F))
- half-life: 11 h
